Source: paper PMC12705613 (Frontiers in Microbiology, 2025)

Key:
[1] = in vivo; details: rat, in vivo, po, 20 mg/kg; for AUC(0-inf): AUC0-∞; for MRT last: MRT0-t; for MRT inf: MRT 0-∞; for half-life: t1/2z
Description: The pharmacokinetic study was described as follows.
The UHPLC-TQ-MS analysis was conducted on an LC-30 AD ultra high-performance liquid chromatograph (Shimadzu, Japan) connected to an AB 4500 (AB Sciex, United States) Triple Quadrupole Mass Spectrometer with an ESI source. Chromatographic separation was achieved on an Acquity UHPLC HSS T3 column (100 × 2.1 mm, 1.8 μm) at 40 °C, and the eluent was aqueous formic acid (100:0.1, v/v) (A) and acetonitrile with formic acid (100:0.1, v/v) (B) at a flow rate of 0.3 mL min^−1. Gradient elution differs in the calculation of residual content and pharmacokinetic experiments. MRM mode was employed. Data processing was performed using Analyst Software (AB Sciex). The UHPLC-TQ-MS method validation was conducted in terms of selectivity, linearity, carryover, accuracy and precision, matrix effect, extraction recovery, dilution integrity, and stability under various conditions, which was performed in line with the FDA guidelines for bioanalytical assays. More details were described in the Supplementary material method.
The comparisons of the relative abundance of the genera between different groups were performed using the Wilcoxon rank-sum test. Comparisons between WKY and SHRs before and after CRO treatment were conducted using either a t-test or one-way ANOVA, with p values < 0.05 considered statistically significant. […] Graphs were created using GraphPad Prism 8.0 software.
For the determination of drug remaining contents in the supernatant, the gradient elution was as follows: 0.1–0.5 min at 45% B; 0.5–1.0 min at 45–65% B; 1.5–4.0 min at 65–85% B; 4.0–4.5 min at 85% B; 4.5–4.6 min at 85%–45% B; 4.6–5.0 min at 45% B. For pharmacokinetics, the gradient elution was performed as follows: 0–0.5 min at 30% B; 0.5–1.5 min at 30–45% B; 1.5–5.0 min at 45–60% B; 5.0–7.0 min at 60–80% B; 7.0–8.0 min at 80% B; 8.1–10.0 min at 30% B. The injection volume was 5 μ L. The multiple reaction monitoring (MRM) mode was used to detect analytes and IS in the positive ion mode. The mass spectrometry parameters were set as follows: ion spray voltage was 5500 V, turbo spray temperature (TEM) of 550℃; nebulizer gas (gas 1) of 50 psi; heater gas (gas 2) of 50 psi and curtain gas of 40 psi. Nitrogen was kept as the nebulizer and auxiliary gas.

[2] = test system: Enterococcus faecalis (ATCC 51299); type: in vitro ADME; details: tested concentrations; OD600
Description: (§1) Enterococcus faecalis (ATCC 51299, BNCC) was cultured in modified brain heart infusion (BHI) broth supplemented with L-cysteine HCl (0.5 g/L), vitamin K1 (10 mg/L), hemin (5 mg/L) and resazurin (1 mg/L). Limosilactobacillus reuteri (JCM 1112, Guangdong Academy of Sciences) was cultured in MRS medium at 37 °C in an anaerobic chamber (5%H2, 5%CO2 and 90%N2). Drug metabolism assays were performed in 96-well plates under optimal growth conditions for each strain. […] Each experiment comprised three biological replicates, including a bacteria-free control. The growth of strains was monitored by measuring OD600 (Eon Microplate Spectrophotometer, BioTek) every 2 h for the first 10 h, followed by 12 to 24 h intervals until 72 h. Supernatants were withdrawn at 6, 12, 24, 48, and 72 h. The remaining drug content and the formation of E-3179 were quantified via UHPLC-TQ-MS. The sample preparation for quantitative analysis was the same as in section 2.3.

[3] = test system: Limosilactobacillus reuteri (JCM 1112); assay: Co-incubation of drug with L. reuteri (degradation, growth); type: in vitro ADME; details: tested concentrations; OD600
Description: as §1

[4] = Metabolites detection in vivo in plasma, feces and urine (UHPLC-Q-TOF-MS); set-up: species or system rat; details: single oral losartan potassium 20 mg/kg
Description: For urine and feces, cumulative samples were collected over the following time intervals: 0–4, 4–8, 8–12, and 12–24 h after administration. The processing of the biological samples can be found in the Supplementary material.
The biological samples were processed as follows: For plasma, a total of 400 μL of pooled plasma was mixed by combining 50 μL aliquots from each time point. A 100 μL aliquot was mixed with 300 μL of methanol, vortexed for one minute, and centrifuged at 5,000 rpm for 10 minutes at 4°C [1]. In the case of urine, 1 mL was centrifuged at 4,000 rpm for 20 minutes at 4°C, and the supernatant was mixed with 2 mL of methanol, vortexed for one minute, and centrifuged at 12,000 rpm for 10 minutes at 4°C [2]. For fecal samples, 1.0 g of homogenized feces was extracted with 4 mL of methanol, sonicated in an ice-water bath for 20 minutes, and then centrifuged at 12,000 rpm for 10 minutes at 4°C [3]. Supernatants from the plasma, urine, and fecal extracts were evaporated under nitrogen gas, redissolved in methanol, and transferred to liquid chromatography vials. Samples were analyzed using UHPLC-Q-TOF-MS/MS for metabolite profiling.

[5] = Stability of the analytes in rat plasma at different storage conditions; type: in vitro ADME
Description: Analysis of QC samples was performed according to a standard curve, which was obtained from freshly prepared calibration standard samples. The autosampler stability was determined by placing samples in the autosampler rack at 8 ℃ for 24 h. The freeze-thaw stability was evaluated after three complete freeze-thaw cycles (-80 ℃ to 25 ℃) on consecutive days. The short-term stability was determined after samples were exposed to room temperature for 6 h. The long-term stability was assessed after storing the samples at -80 ℃ for 30 days. The analytes were considered stable if the deviation between the mean measured concentration and the nominal concentration was within ± 15.0%.

[6] = autosampler for 24 h (8 ℃), high nominal conc. (losartan 8000, E-3174 4000, E-3179 1600 ng/mL)
[7] = autosampler for 24 h (8 ℃), low nominal conc. (losartan 0.2, E-3174 10, E-3179 0.4 ng/mL)
[8] = autosampler for 24 h (8 ℃), middle nominal conc. (losartan 2000, E-3174 1000, E-3179 400 ng/mL)
[9] = room temperature for 6 h, high nominal conc. (losartan 8000, E-3174 4000, E-3179 1600 ng/mL)
[10] = room temperature for 6 h, low nominal conc. (losartan 0.2, E-3174 10, E-3179 0.4 ng/mL)
[11] = room temperature for 6 h, middle nominal conc. (losartan 2000, E-3174 1000, E-3179 400 ng/mL)
[12] = three freeze-thaw cycles, high nominal conc. (losartan 8000, E-3174 4000, E-3179 1600 ng/mL)
[13] = three freeze-thaw cycles, low nominal conc. (losartan 0.2, E-3174 10, E-3179 0.4 ng/mL)
[14] = three freeze-thaw cycles, middle nominal conc. (losartan 2000, E-3174 1000, E-3179 400 ng/mL)
[15] = −80°C for 30 days, high nominal conc. (losartan 8000, E-3174 4000, E-3179 1600 ng/mL)
[16] = −80°C for 30 days, low nominal conc. (losartan 0.2, E-3174 10, E-3179 0.4 ng/mL)
[17] = −80°C for 30 days, middle nominal conc. (losartan 2000, E-3174 1000, E-3179 400 ng/mL)

Compound	Decrease of AUC0-∞ ([1]; SHR compared with WKY) [%]	MRT0-t ([1]; SHR) [h]	MRT 0-∞ ([1]; SHR) [h]	t1/2z ([1]; SHR) [h]	Cmax ([1]; SHR, Cmax) [ng/mL]	MRT last ([1]; SHR) [h]	MRT inf ([1]; SHR) [h]	Tmax ([1]; SHR, Tmax) [h]	half-life ([1]; SHR) [h]	Cmax ([1]; WKY) [ng/mL]	MRT0-t ([1]; WKY) [h]	AUC(0-t) ([1]; WKY, AUC0-t) [ng·h/mL]	AUC(0-inf) ([1]; WKY) [ng·h/mL]	MRT last ([1]; WKY) [h]	Inhibition of growth of E. faecalis [2]	Inhibition of growth of L. reuteri [3]	Abundance in feces and plasma, SHRs vs WKYs [4]	Stability RE [5, 6] [%]	Stability RE [5, 7] [%]	Stability RE [5, 8] [%]	also measured
CCCCc1nc(Cl)c(C(=O)O)n1Cc1ccc(-c2ccccc2-c2nnn[nH]2)cc1 [E-3174]	72.42	11.21 ± 0.73	21.63 ± 10.07	9.10 ± 8.85	1800 ± 1110	8.84 ± 1.59	15.1 ± 8.39	4.75 ± 2.56	10.1 ± 5.59	6985.09 ± 6023.88	12.64 ± 1.23	65000 ± 44100	78300 ± 41100	8.39 ± 2	did not inhibit the growth	did not inhibit the growth	lower in SHRs than in WKYs	2.69	-4.63	-1.40	Tmax ([1]; SHR): 7.00 ± 1.67 h; AUC(0-t) ([1]; SHR, AUC0-t): 17600 ± 4270 ng·h/mL; AUC(0-inf) ([1]; SHR): 21600 ± 3070 ng·h/mL; Stability RE [5, 9]: 0.27%; Stability RE [5, 10]: 3.95%; Stability RE [5, 11]: 11.23%; Stability RE [5, 12]: 5.22%; Stability RE [5, 13]: 0.33%; Stability RE [5, 14]: 8.12%; Stability RE [5, 15]: 5.50%; Stability RE [5, 16]: 1.75%; Stability RE [5, 17]: 5.09%
CCCCc1nc(Cl)c(CO)n1Cc1ccc(-c2ccccc2-c2nn[nH]n2)cc1 [Losartan, Losartan potassium]	50.24	7.64 ± 1.16	12.00 ± 2.70	6.04 ± 2.28	4000 ± 1770	6.79 ± 1.38	9.65 ± 3.34	0.25	5.91 ± 3.72	9331.32 ± 7242.24	9.99 ± 0.84	29900 ± 15400	39200 ± 20400	5.89 ± 2.1	did not inhibit the growth	did not inhibit the growth	lower in SHRs than in WKYs	8.67	-4.05	12.50	Decline of AUC0-t ([1]; SHR compared with WKY): 39.88%; AUC0-∞ ([1]; SHR): 19483.83 ± 4098.26 ng·h/mL; AUC(0-t) ([1]; SHR): 18002.60 ± 2806.38 ng·h/mL; MRT 0-∞ ([1]; WKY): 23.65 ± 16.03 h; t1/2z ([1]; WKY): 13.67 ± 13.15 h; MRT inf ([1]; WKY): 16.7 ± 19.2 h; half-life ([1]; WKY): 13.6 ± 14.3 h; Abundance in urine, SHRs vs WKYs [4]: more abundant in urine; Stability RE [5, 9]: 5.37%; Stability RE [5, 10]: 12.66%; Stability RE [5, 11]: 10.42%; Stability RE [5, 12]: 6.18%; Stability RE [5, 13]: -2.68%; Stability RE [5, 14]: 9.49%; Stability RE [5, 15]: 4.25%; Stability RE [5, 16]: -7.51%; Stability RE [5, 17]: 12.98%
